Two compounds from patent publication US20110224297A1, “Methods of administering prostratin and structural analogs thereof” (priority 2008, published 2011) can be followed below.

The test system of data set [1] is resting CD4+ T cells derived from HIV positive patients. In words: Induction of HIV-1 expression in resting CD4+ T cells from HIV positive patients on HAART (p24, co-culture). The format is cell-based, human. The conditions noted are these: VPA at 1 mM added to cultures treated with prostratin. Here is the method:
The ability of prostratin to induce HIV-1 expression in cultures of highly purified resting CD4+ T cells derived from six HIV positive patients on HAART therapy with undetectable plasma viral load (<50 copies/ml) and CD4 cell counts above 350 cells/mm^3 was evaluated. PBMCs were separated using Ficol Hypaque gradient and resting CD4+ T cells were purified using commercially available CD4+ T cell isolation kit (Miltenyi Biotec) Immediately after purification, resting CD4+ T cells were treated for 3 days with two antiretrovirals to which the patient had not previously been exposed. Antiretrovirals were used at concentrations 10 times the 50% inhibitory concentration for wild-type HIV-1 to ensure elimination of any actively replicating virus. Three days after in vitro incubation with antiretrovirals, cells were washed and incubated for 5 h, 24 h, or 48 h with prostratin (50-500 ng/ml), in the absence or presence of 1 mM valproic acid (sodium salt, SIGMA), 10 μg/ml PHA (SIGMA), 50 U IL-2/ml (AIDS depository of reagents, NIH), or in the absence of drugs. At the end of each incubation period, cells were co-cultured with CD8-depleted PBMCs from healthy donors. P24 was measured at days 0, 4, 7, 14, 21, 28, 35 and 42 days.

A short description of data set [2]: Quantitative whole body autoradiography of rats following oral administration. It counts as in vivo, Long Evans rats. How it is done:
The absorption and distribution of ^3H-Prostratin were studied in male and female rats following a single oral administration at 0.2 mg/kg. Four Long Evans male and four Long Evans female rats, after an overnight fast, each received a single oral administration of ^3H-Prostratin as a solution in saline containing <1% of ethanol at a target dose of 0.2 mg/kg. For both males and females, one animal per time point per sex was sacrificed at 1, 4, 8, and 24 hours postdose and carcasses were prepared for whole-body autoradiography (WBA). Blood, plasma, and cellular fraction were analyzed by using liquid scintillation counting (LSC).

Data set [3] can be described thus: In vitro metabolism in rat primary hepatocytes. It counts as in vitro ADME. How it is done: (§1) ^3H-Prostratin was incubated in hepatocyte preparations with 0.75×10^6 hepatocytes/ml for 0, 30, 60, and 120 minutes. Hepatocytes were suspended in William's E medium and incubated with 1 μM or 4 μM ^3H-Prostratin at 37° C. in an atmosphere of 4.7-4.8% CO2. Hepatocyte incubations were terminated by addition of acetonitrile. Incubations were profiled for ^3H-Prostratin and metabolites by high performance liquid chromatography using a radioactivity detector.
(§2) Metabolites were subsequently analyzed by liquid chromatography/tandem mass spectrometry (LC/MS/MS) for putative identification. Seven predominant metabolites, identified as M1 through M6 according to their chromatographic order of elution, were detected among both genders of the three species, including two co-eluting metabolites labeled as M3A or M3B. Among the seven metabolites, five were putatively identified by LC/MS/MS, while structures could not be proposed for M2 and M3B.

A short description of data set [4]: In vitro metabolism in human primary hepatocytes. The format is in vitro ADME. How it is done: as §1, §2
Data set [5] can be described thus: Extent of metabolism by hepatocytes, rank order across species and genders. It counts as in vitro ADME, rat, monkey, human. The conditions noted are these: 1 μM and 4 μM; up to 120 minutes. Here is the method:
as §1, §2

Data set [6] can be described thus: In vitro metabolism in monkey primary hepatocytes. The conditions noted are these: monkey hepatocytes of both genders. The format is in vitro ADME. How it is done:
as §1, §2

The mark [7] stands for this setting: female rats, single oral 0.2 mg/kg.
Setting [8] is: male rats, single oral 0.2 mg/kg.

SMILES strings stand for the structures.

Regarding `CCCC(CCC)C(=O)O` [VPA, valproic acid, reference compound], the “enhancement of HIV-1 replication beyond the prostratin effect” value in data set [1] is “did not significantly enhance”.
Take `CC(=O)O[C@@]12C[C@@H](C)[C@@]3(O)[C@@H](C=C(CO)C[C@]4(O)C(=O)C(C)=C[C@@H]34)[C@@H]1C2(C)C` [^3H-Prostratin]: in data set [2] (setting [7]), the “maximum blood concentration of radioactivity” value was 59.7 ng equivalents ^3H-Prostratin/g; the “maximum plasma concentration of radioactivity” value is 63.7 ng equivalents ^3H-Prostratin/g; the “time of maximum blood and plasma concentrations of radioactivity” value is recorded as 1 hour postdose. In addition, the “gender-related difference in tissue distribution of radioactivity” value in data set [2] (female versus male rats) is “distributed more widely in female tissues than male tissues”. Further, the “tissue distribution of radioactivity” value in data set [2] (male and female rats, single oral 0.2 mg/kg) is given as “Most of the radioactivity was found in the gastrointestinal (GI) tract”. Moreover, in data set [2] (setting [8]), the “maximum blood concentration of radioactivity” value is given as 30.5 ng equivalents ^3H-Prostratin/g, the “maximum plasma concentration of radioactivity” value is 53.5 ng equivalents ^3H-Prostratin/g, the “time of maximum blood concentration of radioactivity” value was 1 hours postdose and the “time of maximum plasma concentration of radioactivity” value is recorded as 4 hours postdose. Also, the “number of metabolites detected” value in data set [3] (female rat hepatocytes) is given as “two”. The “number of metabolites detected” value in data set [3] (male rat hepatocytes) is given as “Six”. In addition, the “gender difference in metabolism” value in data set [3] (male rat versus female rat hepatocytes) is “more rapid metabolism”. The “number of metabolites produced” value in data set [4] (both genders of human hepatocytes) is listed as “Five”. Besides, in data set [4] (human hepatocytes), the “extent of metabolism in human compared with male monkeys” value is listed as “considerably lower” and the unique human metabolites result is “no unique human metabolites”. Further, the “extent of metabolism by hepatocytes, rank order” value in data set [5] was “male monkey>male rat>>female monkey≈male human≈female human>female rat”. In addition, the “number of metabolites produced” value in data set [6] is reported as “five”.
